Data as given in US11214594B2, “Antimicrobial peptide having synergistic antibacterial effect with antibiotics on multidrug resistant bacteria, and use thereof” (priority 2016, dated 2022).
≈ marks a conversion by molar mass, not a printed value. Like-named read-outs stand apart in the source and are kept apart here. Where a SMILES comes first, the peptide text is derived from it. [ ]: non-standard residue; d: D form.

Assays:
[1] = tested on: multi-drug resistant bacteria; assay: MIC, summary statements for multi-drug resistant bacteria; format: cell-based
Description: For the antibacterial activity, a minimal inhibitory concentration (MIC) of a peptide in which fungus bodies were not split in an MH medium with sufficient nutrients was measured.
Specifically, the strains described in the following [Table 2] were purchased and diluted with an MH medium such that the number of bacteria was 2×10^6 colony-forming units (CFUs), 100 μl of each of the diluted strains was aliquoted into a 96-well microtiter plate, and then 100 μl of a peptide solution diluted with the MH medium (solution diluted stepwise at 2: 1) was added to each well.

[2] = tested on: E. coli; format: cell-based, Escherichia coli; conditions: E. coli
Outline: (§1)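 Broth microdilution in MH medium; strains were diluted to 2×10^6 CFU per ml before plating. Peptide was serially diluted stepwise at 2:1 starting from its MIC, and MH-diluted antibiotic was then added to determine MIC. The reversed arrangement was also tested.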

[3] = tested on: MDREC 1229; format: cell-based, Escherichia coli
Outline: as §1

[4] = tested on: MDRAB 12035; assay: microbe, parasite or virus in culture; format: cell-based, Acinetobacter baumannii
Outline: (§2)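 Broth microdilution in MH medium: strains diluted to 2×10^6 CFU were mixed with equal volumes of twofold serial peptide dilutions in MH medium. MIC was taken as the lowest peptide concentration preventing bacterial growth.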

[5] = tested on: A. baumannii; assay: microbe, parasite or virus in culture; format: cell-based, Acinetobacter baumannii; conditions: for Antibacterial activity relative to PapMA-1: A. baumannii and S. typhimurium
Outline: as §2

[6] = tested on: MDRAB 12036; format: cell-based, Acinetobacter baumannii
Outline: as §2

[7] = tested on: MDRAB 12035; assay: MIC of antimicrobial peptide during combined treatment with antibiotic; format: cell-based, Acinetobacter baumannii
Outline: as §1

[8] = tested on: A. baumannii; assay: as above; format: cell-based, Acinetobacter baumannii
Outline: as §1

[9] = tested on: S. typhimurium; assay: microbe, parasite or virus in culture; format: cell-based, Salmonella typhimurium
Outline: as §2

[10] = tested on: MDRST 8009; format: cell-based, Salmonella typhimurium; conditions: agent alone
Outline: as §2

[11] = with Erythromycin […] (Conc./MIC 1)
[12] = with Linezolid […] (Conc./MIC 1)
[13] = with Vancomycin 1024 μg/ml (Conc./MIC 1)
[14] = erythromycin 32 μg/ml (Conc./MIC 1/8)
[15] = erythromycin 64 μg/ml (Conc./MIC 1/4)
[16] = erythromycin […] (Conc./MIC 1/2)
[17] = linezolid 64 μg/ml (Conc./MIC 1/8)
[18] = linezolid 512 μg/ml (Conc./MIC 1)
[19] = vancomycin 512 μg/ml (Conc./MIC 1/2)
[20] = vancomycin 1024 μg/ml (Conc./MIC 1)
[21] = erythromycin 4 μg/ml (Conc./MIC 1/8)
[22] = erythromycin 8 μg/ml (Conc./MIC 1/4)
[23] = erythromycin 16 μg/ml (Conc./MIC 1/2)
[24] = erythromycin 32 μg/ml (Conc./MIC 1)
[25] = linezolid 32 μg/ml (Conc./MIC 1/8)
[26] = linezolid 64 μg/ml (Conc./MIC 1/4)

## CC[C@H](C)[C@H](NC(=O)[C@H](CCCCN)NC(=O)[C@H](Cc1c[nH]c2ccccc12)NC(=O)[C@@H](N)CCCNC(=N)N)C(=O)N[C@@H](Cc1ccccc1)C(=O)N[C@@H](CCCCN)C(=O)N[C@@H](CCCCN)C(=O)N[C@H](C(=O)N[C@H](CCCCN)C(=O)N[C@@H](CCCCN)C(=O)N[C@@H](CC(C)C)C(=O)N[C@@H](CC(C)C)C(=O)N[C@@H](Cc1c[nH]cn1)C(=O)N[C@@H](CCCCN)C(=O)N[C@@H](Cc1ccccc1)C(=O)N[C@@H](CCCCN)C(=O)N[C@@H](CCCCN)C(=O)N[C@@H](Cc1ccccc1)C(N)=O)[C@@H](C)CC [PapMA-17, RWK IFK KIk KLL HKF KKF-NH2] (H-RWKIFKKI[dK]KLLHKFKKF-NH2; N-terminus assumed)
[1]
  Antibacterial activity relative to PapMA-1: twice to four times higher
[2]; [11]
  Peptide MIC: 0 µg/mL
[2]; [12]
  Peptide MIC: 0 µg/mL
[2]; [13]
  Peptide MIC: 0 µg/mL
[3]; [14]
  Peptide MIC during treatment with antibiotic: 2 µg/mL
[3]; [15]
  Peptide MIC during treatment with antibiotic: 2 µg/mL
[3]; erythromycin […] (Conc./MIC 1)
  Peptide MIC during treatment with antibiotic: 0 µg/mL
[3]; [16]
  Peptide MIC during treatment with antibiotic: 2 µg/mL
[3]; [17]
  Peptide MIC during treatment with antibiotic: 4 µg/mL
[3]; [18]
  Peptide MIC during treatment with antibiotic: 0 µg/mL
[3]; linezolid […] (Conc./MIC 1/2)
  Peptide MIC during treatment with antibiotic: 1 µg/mL
[3]; linezolid […] (Conc./MIC 1/4)
  Peptide MIC during treatment with antibiotic: 4 µg/mL
[3]; [19]
  Peptide MIC during treatment with antibiotic: 2 µg/mL
[3]; [20]
  Peptide MIC during treatment with antibiotic: 1 µg/mL
[3]; vancomycin […] (Conc./MIC 1/4)
  Peptide MIC during treatment with antibiotic: 4 µg/mL
[3]; vancomycin […] (Conc./MIC 1/8)
  Peptide MIC during treatment with antibiotic: 8 µg/mL
[4]
  Minimal inhibitory concentration MIC: 32 µg/mL (≈ 13.2 µM)
  Peptide MIC, peptide alone: 32 µg/mL
[5]
  Minimal inhibitory concentration MIC: 32 µg/mL (≈ 13.2 µM)
  Peptide MIC, peptide alone: 32 µg/mL
  Antibacterial activity relative to PapMA-1: at least twice as high
[6]
  Minimal inhibitory concentration MIC: 32 µg/mL (≈ 13.2 µM)
[7]; [21]
  Peptide MIC during treatment with erythromycin: 4 µg/mL
[7]; [22]
  Peptide MIC during treatment with erythromycin: 4 µg/mL
[7]; [23]
  Peptide MIC during treatment with erythromycin: 2 µg/mL
[7]; [24]
  Peptide MIC during treatment with erythromycin: 0 µg/mL
[7]; [17]
  Peptide MIC during treatment with linezolid: 4 µg/mL
[7]; [18]
  Peptide MIC during treatment with linezolid: 0 µg/mL
[7]; linezolid […] (Conc./MIC 1/2)
  Peptide MIC during treatment with linezolid: 1 µg/mL
[7]; linezolid […] (Conc./MIC 1/4)
  Peptide MIC during treatment with linezolid: 2 µg/mL
[7]; [19]
  Peptide MIC during treatment with vancomycin: 2 µg/mL
[7]; [20]
  Peptide MIC during treatment with vancomycin: 1 µg/mL
[7]; vancomycin […] (Conc./MIC 1/4)
  Peptide MIC during treatment with vancomycin: 4 µg/mL
[7]; vancomycin […] (Conc./MIC 1/8)
  Peptide MIC during treatment with vancomycin: 4 µg/mL
[8]; [21]
  Peptide MIC during treatment with antibiotic: 4 µg/mL
[8]; [22]
  Peptide MIC during treatment with antibiotic: 4 µg/mL
[8]; [23]
  Peptide MIC during treatment with antibiotic: 2 µg/mL
[8]; [24]
  Peptide MIC during treatment with antibiotic: 0 µg/mL
[8]; [25]
  Peptide MIC during treatment with antibiotic: 4 µg/mL
[8]; [26]
  Peptide MIC during treatment with antibiotic: 2 µg/mL
[8]; linezolid […] (Conc./MIC 1)
  Peptide MIC during treatment with antibiotic: 0 µg/mL
[8]; linezolid […] (Conc./MIC 1/2)
  Peptide MIC during treatment with antibiotic: 2 µg/mL
[8]; [19]
  Peptide MIC during treatment with antibiotic: 0.25 µg/mL
[8]; [20]
  Peptide MIC during treatment with antibiotic: 0 µg/mL
[8]; vancomycin […] (Conc./MIC 1/4)
  Peptide MIC during treatment with antibiotic: 0.5 µg/mL
[8]; vancomycin […] (Conc./MIC 1/8)
  Peptide MIC during treatment with antibiotic: 4 µg/mL
[9]
  Minimal inhibitory concentration MIC: 32 µg/mL (≈ 13.2 µM)
[10]
  Minimal inhibitory concentration MIC: 64 µg/mL (≈ 26.5 µM)

## CC[C@H](C)[C@H](NC(=O)[C@H](CCCCN)NC(=O)[C@H](Cc1c[nH]c2ccccc12)NC(=O)[C@@H](N)CCCNC(=N)N)C(=O)N[C@@H](Cc1ccccc1)C(=O)N[C@@H](CCCCN)C(=O)N[C@@H](CCCCN)C(=O)N[C@H](C(=O)N[C@H](CCCCN)C(=O)N[C@@H](CCCCN)C(=O)N[C@@H](CC(C)C)C(=O)N[C@@H](CC(C)C)C(=O)N[C@@H](Cc1c[nH]cn1)C(=O)N[C@@H](CCC(=O)O)C(=O)N[C@@H](Cc1ccccc1)C(=O)N[C@@H](CCCCN)C(=O)N[C@@H](CCCCN)C(=O)N[C@@H](Cc1ccccc1)C(N)=O)[C@@H](C)CC [PapMA-19, RWK IFK KIk KLL HEF KKF-NH2] (H-RWKIFKKI[dK]KLLHEFKKF-NH2; N-terminus assumed)
[1]
  Antibacterial activity relative to PapMA-1: twice to four times higher
[2]; [11]
  Peptide MIC: 0 µg/mL
[2]; [12]
  Peptide MIC: 0 µg/mL
[2]; [13]
  Peptide MIC: 0 µg/mL
[3]; [14]
  Peptide MIC during treatment with antibiotic: 2 µg/mL
[3]; [15]
  Peptide MIC during treatment with antibiotic: 2 µg/mL
[3]; erythromycin […] (Conc./MIC 1)
  Peptide MIC during treatment with antibiotic: 0 µg/mL
[3]; [16]
  Peptide MIC during treatment with antibiotic: 1 µg/mL
[3]; [17]
  Peptide MIC during treatment with antibiotic: 4 µg/mL
[3]; [18]
  Peptide MIC during treatment with antibiotic: 0 µg/mL
[3]; linezolid […] (Conc./MIC 1/2)
  Peptide MIC during treatment with antibiotic: 1 µg/mL
[3]; linezolid […] (Conc./MIC 1/4)
  Peptide MIC during treatment with antibiotic: 2 µg/mL
[3]; [19]
  Peptide MIC during treatment with antibiotic: 2 µg/mL
[3]; [20]
  Peptide MIC during treatment with antibiotic: 1 µg/mL
[3]; vancomycin […] (Conc./MIC 1/4)
  Peptide MIC during treatment with antibiotic: 4 µg/mL
[3]; vancomycin […] (Conc./MIC 1/8)
  Peptide MIC during treatment with antibiotic: 4 µg/mL
[4]
  Minimal inhibitory concentration MIC: 32 µg/mL (≈ 13.2 µM)
  Peptide MIC, peptide alone: 32 µg/mL
[5]
  Minimal inhibitory concentration MIC: 16 µg/mL (≈ 6.62 µM)
  Peptide MIC, peptide alone: 16 µg/mL
  Antibacterial activity relative to PapMA-1: at least twice as high
[6]
  Minimal inhibitory concentration MIC: 32 µg/mL (≈ 13.2 µM)
[7]; [21]
  Peptide MIC during treatment with erythromycin: 4 µg/mL
[7]; [22]
  Peptide MIC during treatment with erythromycin: 4 µg/mL
[7]; [23]
  Peptide MIC during treatment with erythromycin: 2 µg/mL
[7]; [24]
  Peptide MIC during treatment with erythromycin: 0 µg/mL
[7]; [17]
  Peptide MIC during treatment with linezolid: 4 µg/mL
[7]; [18]
  Peptide MIC during treatment with linezolid: 0 µg/mL
[7]; linezolid […] (Conc./MIC 1/2)
  Peptide MIC during treatment with linezolid: 1 µg/mL
[7]; linezolid […] (Conc./MIC 1/4)
  Peptide MIC during treatment with linezolid: 2 µg/mL
[7]; [19]
  Peptide MIC during treatment with vancomycin: 2 µg/mL
[7]; [20]
  Peptide MIC during treatment with vancomycin: 1 µg/mL
[7]; vancomycin […] (Conc./MIC 1/4)
  Peptide MIC during treatment with vancomycin: 2 µg/mL
[7]; vancomycin […] (Conc./MIC 1/8)
  Peptide MIC during treatment with vancomycin: 2 µg/mL
[8]; [21]
  Peptide MIC during treatment with antibiotic: 4 µg/mL
[8]; [22]
  Peptide MIC during treatment with antibiotic: 4 µg/mL
[8]; [23]
  Peptide MIC during treatment with antibiotic: 2 µg/mL
[8]; [24]
  Peptide MIC during treatment with antibiotic: 0 µg/mL
[8]; [25]
  Peptide MIC during treatment with antibiotic: 4 µg/mL
[8]; [26]
  Peptide MIC during treatment with antibiotic: 2 µg/mL
[8]; linezolid […] (Conc./MIC 1)
  Peptide MIC during treatment with antibiotic: 0 µg/mL
[8]; linezolid […] (Conc./MIC 1/2)
  Peptide MIC during treatment with antibiotic: 1 µg/mL
[8]; [19]
  Peptide MIC during treatment with antibiotic: 0.25 µg/mL
[8]; [20]
  Peptide MIC during treatment with antibiotic: 0 µg/mL
[8]; vancomycin […] (Conc./MIC 1/4)
  Peptide MIC during treatment with antibiotic: 0.5 µg/mL
[8]; vancomycin […] (Conc./MIC 1/8)
  Peptide MIC during treatment with antibiotic: 2 µg/mL
[9]
  Minimal inhibitory concentration MIC: 32 µg/mL (≈ 13.2 µM)
[10]
  Minimal inhibitory concentration MIC: 64 µg/mL (≈ 26.5 µM)
